Test results: article PMC8113231 (Nature Communications, 2021)
Where a SMILES comes first, the peptide text is derived from it. Bridges are numbered along the chain shown (N, C = ends).

How the values were obtained:
H5N1/Vac-3 = assay type: cell-based, influenza A virus
H1N1/Tokyo2619 = assay type: cell-based, influenza A virus
[1] = test system: A/duck/Hokkaido/Vac-3/07 (H5N1/Vac-3); test: microbe, parasite or virus in culture; assay type: cell-based, influenza A virus; settings: Influenza A virus, H5N1, MDCK; 48–72 h; read-out: EC50, plaque reduction, H5N1/Vac-3
[2] = test system: A/whooper swan/Mongolia/3/05 (H5N1/Mongolia; clade 2.2); test: microbe, parasite or virus in culture; assay type: cell-based; settings: Influenza A virus, H5N1, MDCK; 48–72 h; read-out: EC50, plaque reduction, H5N1/Mongolia (clade 2.2)
[3] = test system: A/whooper swan/Hokkaido/1/08 (H5N1/Hokkaido; clade 2.3.2.1); test: microbe, parasite or virus in culture; assay type: cell-based; settings: Influenza A virus, H5N1, MDCK; 48–72 h; read-out: EC50, plaque reduction, H5N1/Hokkaido (clade 2.3.2.1)
[4] = test system: A/Puerto Rico/8/34 (H1N1/PR8); test: microbe, parasite or virus in culture; assay type: cell-based; settings: Influenza A virus, MDCK; 48–72 h; read-out: EC50, plaque reduction, H1N1/PR8
[5] = test system: A/Tokyo/2619/09 (H1N1/Tokyo2619); test: microbe, parasite or virus in culture; assay type: cell-based; settings: Influenza A virus, H1N1, MDCK; 48–72 h; read-out: EC50, plaque reduction, H1N1/Tokyo2619
[6] = test system: A/Narita/1/09 (H1N1/Narita); test: microbe, parasite or virus in culture; assay type: cell-based; settings: Influenza A virus, H1N1, MDCK; 48–72 h; read-out: EC50, plaque reduction, H1N1/Narita
A/Adachi/2/57 (H2N2) = test: microbe, parasite or virus in culture; assay type: cell-based; settings: Influenza A virus, H2N2, MDCK; 48–72 h; read-out: EC50, plaque reduction, H2N2/Adachi
[7] = test system: A/whooper swan/Hokkaido/1/08 (H5N1); design: species or system BALB/c mice; settings: mouse, in vivo

SMILES	H5N1/Vac-3 virus-mediated RBC membrane fusion (H5N1/Vac-3)	H1N1/Tokyo2619 virus-mediated RBC membrane fusion (H1N1/Tokyo2619)	EC50 [1]	EC50 [2]	EC50 [3]	EC50 [4]	EC50 [5]	EC50 [6]	EC50 (A/Adachi/2/57 (H2N2))	Survival outcome, delayed administration [7]
CC[C@H](C)[C@@H]1NC(=O)[C@H](C)NC(=O)[C@H](Cc2c[nH]c3ccccc23)NC(=O)[C@H](CCC(=O)O)NC(=O)[C@H](CC(C)C)NC(=O)[C@@H]2CCCN2C(=O)[C@H](Cc2ccccc2)NC(=O)[C@H](CCCCN)NC(=O)[C@H](Cc2c[nH]c3ccccc23)NC(=O)[C@H](CC(N)=O)NC(=O)[C@H](C(C)C)NC(=O)CSC[C@@H](C(=O)NCC(N)=O)NC(=O)[C@H](Cc2ccc(O)cc2)NC(=O)[C@H](CCCNC(=N)N)NC1=O [iHA-12sf, reference compound] ({CH2CO}-VNWKFPLEWAIRYCG-NH2; thioether N-14)	did not reduce RBC membrane fusion	did not reduce RBC membrane fusion								
CC(=O)N[C@H]1[C@H]([C@H](O)[C@H](O)CO)OC(C(=O)O)=C[C@@H]1N=C(N)N [zanamivir]			42 nM	< 10 nM	< 10 nM	115 nM	> 1000 nM	> 1000 nM	60 nM	all mice in the zanamivir-treated group died
